Measured values reported in patent publication US20240254435A1, “VARIANT BACTERIAL STRAINS AND PROCESSES FOR PROTEIN OR BIOMASS PRODUCTION” (Solar Foods Oy, priority 2021, published 2024).

Legend:
[1] = Antibiotic susceptibility (MIC), quality control strain; conditions: E. coli ATCC 25922, 18 h ± 2 h, aerobic, +35±2° C.
[2] = Antibiotic susceptibility (MIC), broth microdilution / agar dilution, CLSI M07; conditions: for Minimum Inhibitory Concentration (MIC): VTT-E-193585, 48 h ± 1 h, aerobic, +35±2° C., cation-adjusted Mueller Hinton Broth, fosfomycin by agar dilution; for MIC values for VTT-E-193585 compared to E. coli ATCC 25922: comparison in words

Compound | Minimum Inhibitory Concentration (MIC) [1] [µg/mL] | Minimum Inhibitory Concentration (MIC) [2] [µg/mL] | MIC values for VTT-E-193585 compared to E. coli ATCC 25922 [2]
Colistin | 2 | 4 | higher
CC1(C)S[C@@H]2[C@H](NC(=O)[C@H](N)c3ccccc3)C(=O)N2[C@H]1C(=O)O [Ampicillin] | 8 | 16 | higher
[H]/N=C(/N)N[C@H]1[C@H](O)[C@@H](O)[C@H](O[C@@H]2O[C@@H](C)[C@](O)(C=O)[C@H]2O[C@@H]2O[C@@H](CO)[C@H](O)[C@@H](O)[C@@H]2NC)[C@@H](N/C(N)=N\[H])[C@@H]1O [Streptomycin] | 4 | 0.5 | lower or comparable
C[C@@H]1O[C@@H]1P(=O)(O)O [Fosfomycin] | 0.5 | 32 | higher
Gentamicin | 0.5 | 0.5 | lower or comparable
